# Earlier results as cited in US20040115234A1, “Cosmetic composition” (priority 2002, published 2004).
# Tests used:
# eyelashes = settings: Latanoprost at 0.005% by weight; clinical studies over up to 12 months; % of the subjects tested
smiles,measurement,setting,value
"CC(C)OC(=O)CCC/C=C\C[C@@H]1[C@@H](CC[C@@H](O)CCc2ccccc2)[C@H](O)C[C@@H]1O [Latanoprost, isopropyl-(Z)-7[(1R, 2R, 3R, 5S)3,5-dihydroxy-2-[(3R)-3-hydroxy-5-phenylpentyl]cyclopentyl]-5-heptenoate]",solubility in water,,limited solubility in water
same,subjects with induced change in color of eyelashes,eyelashes,16.5%
same,subjects with induced change in density of eyelashes,eyelashes,22.2%
same,subjects with induced change in length of eyelashes,eyelashes,25.8%
same,subjects with induced change in thickness of eyelashes,eyelashes,17.5%
